Data as given in US8222257B2, “Phosphono-pent-2-en-1-yl nucleosides and analogs” (The Regents of the University of California, priority 2005, dated 2012).
pEC50: −log10 of the molar value. Like-named read-outs stand apart in the source and are kept apart here.

How the values were obtained:
Wild Type HBV = assay: HBV replicative intermediates in vitro, wild type HBV; settings: Hepatitis B virus, read-out: EC50 for intracellular HBV replicative intermediates (HBV R.I.), Wild Type
HIV-tLal = format: cell-based; settings: Human immunodeficiency virus 1, MT2, read-out: HIV-1 EC50
EBV = EBV Elisa assay in Daudi cells; format: cell-based; settings: human gammaherpesvirus 4, Daudi, read-out: EBV EC50
HSV-1 = format: cell-based; settings: Human alphaherpesvirus 1, MRC5, DNA reduction assay in MRC-5 cells
VZV = VZV CPE assay in HFF cells; format: cell-based; settings: Human alphaherpesvirus 3
HCMV = assay: Antiviral activity against human CMV in vitro; settings: for pEC50: Human betaherpesvirus 5, read-out: EC50 HCMV; for EC90: Human betaherpesvirus 5, read-out: EC90 HCMV
in vitro [1] = assay: in vitro
in vitro [2] = assay: in vitro; remark: listed apart in the source
MCMV = assay: Antiviral activity against murine CMV in vitro; settings: in Mus musculus; for pEC50: read-out: EC50 MCMV; for EC90: read-out: EC90 MCMV
[3] = Hepatitis B virus, read-out: HBV EC50, DNA reduction assay in 2.2.15 cells
[4] = read-out: HBV EC50, DNA reduction assay in 2.2.15 cells

CCCCCCCCCCCCCCCCOCCCOP(=O)(O)CC/C=C\Cn1cnc2c(N)ncnc21 [HDP-PPen-A]
pEC50 (Wild Type HBV): 5.04 | pEC50 (HIV-tLal): < 5.00 | pEC50 (EBV): 7.00 | pEC50 (HSV-1): 4.75 | pEC50 (HBV; [3]): 5.96 | pEC50 (HBV; [4]): 5.70 | pEC50 (VZV): < 4.22

CCCCCCCC/C=C\CCCCCCCCOCCOP(=O)(O)CC/C=C\Cn1cnc2c(=O)[nH]c(N)nc21 [OLE-PPen-G, (Z)-2-(octadec-9-enyloxy)ethyl hydrogen 5-(2-amino-6-oxo-1,6-dihydropurin-9-yl)pent-3-enylphosphonate]
pEC50 (HCMV): 6.33 | EC90 (HCMV): 0.89 µM | CC50 (in vitro [1]): > 1 µM | CC50 (in vitro [2]): > 1 µM | pEC50 (MCMV): 7.55 | EC90 (MCMV): 0.12 µM | pEC50 (HSV-1): 6.17

CCCCCCCCCCCCCCCCOCCCOP(=O)(O)CC/C=C\Cn1cc(C)c(=O)[nH]c1=O [HDP-PPen-T]
pEC50 (HIV-tLal): 6.00 | pEC50 (HSV-1): 6.05

Cc1cn(CC=CCCP(=O)(O)O)c(=O)[nH]c1=O [PPen-T, 1-(5-Phosphono-pent-2-en-1-yl)-thymine]
pEC50 (HIV-tLal): < 4.00 | pEC50 (HSV-1): < 4.52 | pEC50 (HBV; [3]): < 4.52 | pEC50 (VZV): < 3.52

CCCCCCCCCCCCCCCCOCCCOP(=O)(O)CC/C=C\Cn1ccc(N)nc1=O [HDP-PPen-C, (3Z)-3-(hexadecyloxy)propyl hydrogen 5-(4-amino-2-oxopyrimidin-1(2H)-yl)pent-3-enylphosphonate]
pEC50 (HIV-tLal): 5.60 | pEC50 (HSV-1): 5.33

Nc1ccn(CC=CCCP(=O)(O)O)c(=O)n1 [PPen-C, 1-(5-Phosphono-pent-2-en-1-yl)cytosine]
pEC50 (HIV-tLal): < 4.00 | pEC50 (HSV-1): < 4.52 | pEC50 (HBV; [3]): < 4.52 | pEC50 (VZV): < 4.22

CCCCCCCCCCCCCCCCOCCCOP(=O)(O)CC/C=C\Cn1cnc2c(=O)[nH]c(N)nc21 [HDP-PPen-G, (Z)-3-(hexadecyloxy)propyl hydrogen 5-(2-amino-6-oxo-1,6-dihydropurin-9-yl)pent-3-enylphosphonate]
pEC50 (Wild Type HBV): 5.06 | pEC50 (HIV-tLal): < 5.00 | pEC50 (EBV): 4.32 | pEC50 (HBV; [3]): 5.62 | pEC50 (HBV; [4]): 5.60 | pEC50 (VZV): 6.82

CCCCCCCCCCCCCCCCOCCCOP(=O)(O)CC/C=C\Cn1ccc(=O)[nH]c1=O [HDP-PPen-U, (3Z)-3-(hexadecyloxy)propyl hydrogen 5-(3,4-dihydro-2,4-dioxopyrimidin-1(2H)-yl)pent-3-enylphosphonate]
pEC50 (HIV-tLal): < 5.00 | pEC50 (HSV-1): < 4.52 | pEC50 (HBV; [3]): < 4.52

Nc1ncnc2c1ncn2CC=CCCP(=O)(O)O [PPen-A, 9-(5-Phosphono-pent-2-en-1-yl)-adenine]
pEC50 (HIV-tLal): < 4.00 | pEC50 (EBV): < 5.40 | pEC50 (HSV-1): < 4.52 | pEC50 (HBV; [3]): < 4.52 | pEC50 (VZV): < 3.52

CCCCCCCCCCCCCCCCCCOCCOP(=O)(O)CC/C=C\Cn1cnc2c(=O)[nH]c(N)nc21 [ODE-PPen-G, (Z)-2-(octadecyloxy)ethyl hydrogen 5-(2-amino-6-oxo-1,6-dihydropurin-9-yl)pent-3-enylphosphonate]
pEC50 (HCMV): 6.77 | EC90 (HCMV): 0.81 µM | pEC50 (MCMV): 8.40 | EC90 (MCMV): 0.03 µM | pEC50 (HSV-1): 5.34

Nc1nc2c(ncn2CC=CCCP(=O)(O)O)c(=O)[nH]1 [PPen-G, 9-(5-Phosphono-pent-2-en-1-yl)-guanine]
pEC50 (HIV-tLal): < 4.00 | pEC50 (HSV-1): < 4.52 | pEC50 (HBV; [3]): < 4.52 | pEC50 (VZV): 5.14

O=c1ccn(CC=CCCP(=O)(O)O)c(=O)[nH]1 [PPen-U, 1-(5-Phosphono-pent-2-en-1-yl)-uracil]
pEC50 (HIV-tLal): < 4.00 | pEC50 (HSV-1): < 4.52 | pEC50 (HBV; [3]): < 4.52 | pEC50 (VZV): < 3.52
